According to patent publication US20230292758A1, “COMPOSITIONS AND METHODS FOR CONTROLLLING FUNGAL DISEASES IN PLANTS” (priority 2020, published 2023):

Columns and labels:
Botrytis cinerea = Botrytis cinerea disease control assay on treated plants inoculated with spore suspension; format: in vivo; settings: Example 1; bell pepper plants
Description: Subsequently, the plants were inoculated with a spore suspension of Botrytis cinerea. Several days later when disease was evident in the untreated control plants the plants were evaluated for percent disease control. The results shown in Table 1 are the average values of four independent measurements. A relatively high disease pressure affecting 100% of plants in the untreated control group was present. Percent disease control was scored with 0% indicating no difference in disease from the untreated control plants and 100% indicating no observable disease in the plants. […]
Bacillus subtilis QST713 WB and BC were prepared as described in the previous examples. […] Subsequently, the plants were inoculated with a spore suspension of Botrytis cinerea and scored for percent disease control when disease was evident in 100% of the untreated control plants. […]
Bacillus subtilis QST713 WB was prepared as described in the previous examples. […] Four replicate measurements of disease control were evaluated for each treatment, and the average values are presented in the plot shown in FIG. 4.
Each of the combinations was also evaluated for antifungal activity using the Botrytis cinerea assay described in the previous examples.

[1] = Relative lipopeptide levels in supernatants by LC-MS; format: physicochemical; settings: Example 4
Description: Bacillus subtilis QST713 WB and Bacillus subtilis QST713 BC were prepared as described in the previous examples. […] Combinations of Bacillus subtilis QST713 BC with 3% (w/w) ANS or 5% (w/w) ANS were also prepared. […] To determine relative amounts of lipopeptides in the combinations samples were centrifuged to obtain the supernatant layer relatively free of spores. It was then filtered and separated on an analytical HPLC column and detected with a mass spectrometer (i.e., via LC-MS).
Peaks containing lipopeptides were identified by analysis of mass to charge (m/z) ratios. For example, “Iturin_1043_B” corresponds with an iturin peak in which the predominant m/z ratio detected by the mass spectrometer was 1043 corresponding with the molecular formula of C48H74N12O14. Relative quantification was performed by comparing the peak areas in the samples to those in an extract of a Bacillus subtilis QST713 WB used across different experiments as a reference standard.
For purposes of comparison, an aliquot of the Bacillus subtilis QST713 WB that was present in the ANS combinations was also analyzed for relative lipopeptides levels. The Bacillus subtilis QST713 WB (the “Extracted” sample in FIG. 2) and a supernatant of the Bacillus subtilis QST713 WB removed after centrifugation (the “Supernatant” sample in FIG. 2) were analyzed via LC-MS. […]

Substance: sodium diisopropyl naphthalene sulfonate [ANS]
- antifungal activity / disease control, in words (Botrytis cinerea): no observable disease control
- relative amounts of iturins in the supernatant ([1]; 3% ANS in WB compared with 3% Adjuvant 1): about two to three times greater
- lipopeptides in the supernatants, in words ([1]; increase from 3% to 5% of ANS, WB and BC): corresponding increase of lipopeptides
